For 59 compounds, viability results are on record in article PMC12040169 (PLOS Biology, 2025).

The data set is described as follows: in vitro. To be noted: human, hela cells, % viability.
As to `O=C(c1cc(F)cc(F)c1)N1CCC(c2n[nH]c3ncccc23)CC1` [CBK284909], the viability at 28.5 h, 10 µM was determined as 87.9%.

Consider `Cc1ccsc1C(=O)N1CCC(c2n[nH]c3ncccc23)CC1` [CBK284910], for which the viability at 28.5 h, 10 µM worked out at 92.2%.

Consider `Cc1ccc(C(=O)N2CCC(c3n[nH]c4ncccc34)CC2)s1` [CBK284911], for which the viability at 28.5 h, 10 µM came to 90.8%.

Take `Cn1cc(C2CCCCCN2C(=O)c2ccc(F)cc2)cn1` (centres unmarked) [CBK284913]: the viability at 28.5 h, 10 µM is 76.8%.

For the compound `Cn1ccc(C2CCCCCN2C(=O)c2c(Cl)cnn2C)n1` (centres unmarked) [CBK284914], the viability at 28.5 h, 10 µM came to 102%.

Turning to `Cn1ncc(Cl)c1C1CCCCCN1C(=O)c1ccco1` (centres unmarked) [CBK284915], the viability at 28.5 h, 10 µM was determined as 104%.

`Cc1noc(C)c1C(=O)N1CCCCCC1c1c(Cl)cnn1C` (centres unmarked) [CBK284918]: the viability at 28.5 h, 10 µM turned out to be 93.3%.

As to `O=C(c1cc[nH]n1)N1CCCC(c2cc3ccccc3cn2)C1` (centres unmarked) [CBK284921], the viability at 28.5 h, 10 µM came out at 85.2%.

On to `O=C1CC2(CCC3C(C(=O)NC4CCCC4)C32)Oc2ccccc21` (centres unmarked) [CBK284922], for which the viability at 28.5 h, 10 µM is 97.6%.

In the case of `CCN(CC)C(=O)C1C2CCC3(CC(=O)c4ccccc4O3)C21` (centres unmarked) [CBK284923], the viability at 28.5 h, 10 µM came out at 105%.

On to `Cn1nc(C2CCN(C(=O)c3cccs3)CC2)c2cccnc21` [CBK284925], for which the viability at 28.5 h, 10 µM came to 82.9%.

With `Cc1cc(C)n(CC(=O)N2CCCC(c3cc4cccnc4[nH]3)C2)n1` (centres unmarked) [CBK284928], the viability at 28.5 h, 10 µM was determined as 96.2%.

Regarding `CC(C)n1nccc1C(=O)N1CCCC(c2cc3cccnc3[nH]2)C1` (centres unmarked) [CBK284930], the viability at 28.5 h, 10 µM is 99.3%.

Take `CC1CCCN(C(=O)C2C3CCC4(CC(=O)c5ccccc5O4)C32)C1` (centres unmarked) [CBK284932]: the viability at 28.5 h, 10 µM worked out at 89.8%.

Consider `Cc1cc(C[C@@H]2CCC[C@H]2NCc2cccnc2)on1` [CBK284933], for which the viability at 28.5 h, 10 µM worked out at 97.1%.

For the compound `Cc1cc(C[C@@H]2CCC[C@H]2NCc2nc3ccccc3[nH]2)on1` [CBK284935], the viability at 28.5 h, 10 µM was 87.3%.

As to `O=C(C1CCCCC1)N1CCCC(c2cc3cccnc3[nH]2)C1` (centres unmarked) [CBK284938], the viability at 28.5 h, 10 µM is 98.4%.

Consider `O=C(c1cccc(F)c1)N1CCCC(c2cc3cccnc3[nH]2)C1` (centres unmarked) [CBK284939], for which the viability at 28.5 h, 10 µM is 122%.

For the compound `O=C(c1cccs1)N1Cc2ccccc2OC2(CCOCC2)C1` [CBK284942], the viability at 28.5 h, 10 µM is 103%.

For `C=Cn1cc(CN2CCCC(c3cc4cccnc4[nH]3)C2)c(C)n1` (centres unmarked) [CBK284944], the viability at 28.5 h, 10 µM was found to be 115%.

As for `CC(C)(C)C(=O)N1CCCC(c2cc3cccnc3[nH]2)C1` (centres unmarked) [CBK284945], the viability at 28.5 h, 10 µM was determined as 102%.

On to `Cc1ccc(-c2cc(CC3(C(=O)NC4CC4)CCOCC3)on2)cc1` [CBK284946], for which the viability at 28.5 h, 10 µM amounted to 99.7%.

As for `O=C1CC2(CCC3C(C(=O)N4CCCCC4)C32)Oc2ccccc21` (centres unmarked) [CBK284947], the viability at 28.5 h, 10 µM is 105%.

`Cn1cncc1CN1CCCC(c2cc3cccnc3[nH]2)C1` (centres unmarked) [CBK284948]: the viability at 28.5 h, 10 µM turned out to be 98.4%.

For `CCCn1ncc(CN2CCC(c3cc4cccnc4[nH]3)CC2)c1C` [CBK284949], the viability at 28.5 h, 10 µM worked out at 97.2%.

As to `Cc1ccc2c(c1)C(=O)CC1(CCC3C(C(=O)N4CCCC4)C31)O2` (centres unmarked) [CBK284951], the viability at 28.5 h, 10 µM is 98.3%.

Regarding `Cc1nccn1CC1(O)CCN(Cc2ccc(F)c(F)c2)CC1` [CBK284955], the viability at 28.5 h, 10 µM stood at 117%.

In the case of `O=C(CCn1c(C(F)F)cc2cccnc21)N1CCOCC1` [CBK284956], the viability at 28.5 h, 10 µM was determined as 101%.

For the compound `CC1CCCCN1C(=O)C1C2CCC3(CC(=O)c4ccccc4O3)C21` (centres unmarked) [CBK284960], the viability at 28.5 h, 10 µM worked out at 101%.

In the case of `Cc1nccn1CC1(O)CCN(Cc2ccccc2F)CC1` [CBK284961], the viability at 28.5 h, 10 µM is 105%.

On to `CC(C)(C)NC(=O)C1C2CCC3(CC(=O)c4cc(Cl)ccc4O3)C21` (centres unmarked) [CBK284963], for which the viability at 28.5 h, 10 µM came to 109%.

With `Cc1ccc(-c2cc3cccnc3n2CCC(=O)NC2CC2)cn1` [CBK284964], the viability at 28.5 h, 10 µM came to 97.4%.

`CN1CCC2(CC1)CN(C(=O)C1CC1)Cc1ccccc1O2` [CBK284967]: the viability at 28.5 h, 10 µM came to 102%.

As to `Cc1ccc(S(=O)(=O)N2CC[C@@H]3C[C@H](NC(=O)C4CC4C)[C@@H]32)cc1` (some centres unmarked) [CBK284968], the viability at 28.5 h, 10 µM turned out to be 90%.

As to `O=C1CC2(CCC3C(C(=O)N4CCCC4)C32)Oc2ccccc21` (centres unmarked) [CBK284969], the viability at 28.5 h, 10 µM is 104%.

As for `Cn1cc(C2CCCCCN2C(=O)c2cccc(F)c2)cn1` (centres unmarked) [CBK284970], the viability at 28.5 h, 10 µM came to 102%.

As for `Cn1cc(C2CCCCCN2C(=O)c2nn(C)cc2Cl)cn1` (centres unmarked) [CBK284972], the viability at 28.5 h, 10 µM was found to be 93.2%.

Turning to `Cc1noc(C)c1C(=O)N1CCCCCC1c1cnn(C)c1` (centres unmarked) [CBK284974], the viability at 28.5 h, 10 µM is 98.8%.

Regarding `O=C(c1n[nH]c2c1CCCC2)N1CCc2ncc(Cl)cc2C1` [CBK284975], the viability at 28.5 h, 10 µM was 93.4%.

In the case of `O=C1CC(C(=O)N2CCc3ncc(Cl)cc3C2)c2ccccc2N1` (centres unmarked) [CBK284976], the viability at 28.5 h, 10 µM turned out to be 94.4%.

For the compound `CCn1nc(C)c(CN2CCCC(c3cc4cccnc4[nH]3)C2)c1C` (centres unmarked) [CBK284977], the viability at 28.5 h, 10 µM turned out to be 107%.

In the case of `Cc1cc2ccnc(Cl)c2n1CC1(O)CC2CCC(C1)N2` (centres unmarked) [CBK284980], the viability at 28.5 h, 10 µM amounted to 95%.

For `Cc1nccn1CC1(O)CCN(CC2=CCC3CC2C3(C)C)CC1` (centres unmarked) [CBK284981], the viability at 28.5 h, 10 µM was 94.6%.

With `CC1CCN(C(=O)CCn2c(C(F)F)cc3cccnc32)CC1` [CBK284982], the viability at 28.5 h, 10 µM came out at 85.6%.

On to `O=C(CCn1c(C(F)F)cc2cccnc21)N1CCCCCC1` [CBK284983], for which the viability at 28.5 h, 10 µM stood at 96.9%.

Take `O=C(CCn1c(C(F)F)cc2cccnc21)N1CCCC(CO)C1` (centres unmarked) [CBK284985]: the viability at 28.5 h, 10 µM turned out to be 99.5%.

As for `Cn1nc(C2CCN(C(=O)Cc3ccsc3)CC2)c2cccnc21` [CBK284986], the viability at 28.5 h, 10 µM came to 101%.

Consider `Cc1ccc(C(=O)N2CCC(c3nn(C)c4ncccc34)CC2)s1` [CBK284988], for which the viability at 28.5 h, 10 µM was found to be 86.1%.

Regarding `O=C(c1c(F)cccc1F)N1CCC(c2cc3cccnc3[nH]2)CC1` [CBK284997], the viability at 28.5 h, 10 µM was 91.5%.

In the case of `Cc1cc(C)n(CC(=O)N2CCC(c3cc4cccnc4[nH]3)CC2)n1` [CBK284999], the viability at 28.5 h, 10 µM is 91.3%.

As to `O=C(c1ccc(F)cc1)N1CCC(c2cc3cccnc3[nH]2)CC1` [CBK285001], the viability at 28.5 h, 10 µM stood at 96.8%.

Consider `O=C(Cn1c(C2CCNCC2)cc2cccnc21)NC1CCCC1` [CBK285002], for which the viability at 28.5 h, 10 µM is 104%.

As to `COCC(=O)NC(Cc1cccs1)c1nc(C)cs1` (centres unmarked) [CBK285004], the viability at 28.5 h, 10 µM amounted to 87.3%.

Take `Cc1csc(C(Cc2cccs2)NC(=O)C2CCOCC2)n1` (centres unmarked) [CBK285006]: the viability at 28.5 h, 10 µM was 89.2%.

On to `CC(=O)N1C[C@@H](N(C)C)[C@H](c2cn(C)c3ccccc23)C1` [CBK285007], for which the viability at 28.5 h, 10 µM was determined as 99.5%.

On to `CC(C)N(C(=O)Cn1c(C(F)F)cc2cccnc21)C(C)C` [CBK285009], for which the viability at 28.5 h, 10 µM was found to be 100%.

With `COCC(C)NC(=O)Cn1c(C(F)F)cc2cccnc21` (centres unmarked) [CBK285010], the viability at 28.5 h, 10 µM turned out to be 105%.

In the case of `O=C(Cn1cccc2cc(C3CCCNC3)nc1-2)NC1CCCC1` (centres unmarked) [CBK285015], the viability at 28.5 h, 10 µM was found to be 95.5%.

For the compound `Cc1n[nH]c(C)c1CC(=O)N1CCCC(c2cc3ccccc3cn2)C1` (centres unmarked) [CBK285018], the viability at 28.5 h, 10 µM came out at 103%.
